Data set [1] relates to spontaneous locomotor activity. As to the kind of experiment: Open field test (Example 7). The conditions noted are these: 60 min post dose, 30 minutes tracking, vs vehicle.
Protocol: Test system: Mice Strain/Gender: Swiss albino/Male Study: Open field test
Open field test: The spontaneous locomotor activity in terms of total distance traveled is measured in open field test. Comparatively lower distance traveled would indicate either less motor activity or sedation.
Mice were brought to the laboratory and allowed to acclimatize to the environment for at least 7 days. The open field test was done in lighting conditions of 40 lux light. The mice were dosed as per the allocation. After a post dose interval of 60 minutes, 4 mice from a group were placed in the open field and the movement was tracked for a period of 30 minutes. Once the trial was over the mice were removed from the open field and the arena was cleaned. Following this, next set of 4 mice were placed in the arena and tracked.
The distance travelled for a period of 30 minutes was analyzed in bins of 5 minutes and was compared with that of the vehicle group using one-way ANOVA followed by Dunnett's test. All statistical analysis were performed using Graph pad prism software package (Version 7 or Higher) and p value below 0.05 was considered as significant.
Data set [2] relates to yohimbine-induced noradrenergic mediated hyperarousal. The data set can be described thus: Elevated plus maze, yohimbine-induced hyperarousal (Example 2). The conditions noted are these: for exploration time (time spent in the open arms) / number of open arm entries: 60 min prior to EPM, yohimbine 2.5 mg/kg i.p. 30 min prior, 5 min period; for reduction of noradrenergic mediated hyperarousal: 10 mg/kg i.m. pretreatment, yohimbine 2.5 mg/kg i.p. Format: in vivo, Wistar rats. From the text:
Background: Yohimbine is an alpha 2-adrenergic receptor antagonist reported to trigger panic attacks in healthy volunteers and to exacerbate symptoms in patients with panic disorder (Charney et al., 1992 Acta Psychiatr Scand., Vol. 86 (4): 273-282). Peripheral administration of Yohimbine causes noradrenergic mediated hyperarousal in rats as assessed by the EPM paradigm.
Rationale: The drug yohimbine is a natural product used to test a specific pathway, noradrenergic-mediated hyper-arousal. It is well established that yohimbine is an alpha2-adrenergic receptor antagonist and activates the locus coeruleus (LC) and increases noradrenergic signaling (the opposite of alpha2-adrenergic agonists like dexmedetomidine and clonidine). Increased LC activity and noradrenergic signaling makes animals anxious and agitated which can be measured by using the elevated plus maze. In the elevated plus maze, rodents were in the closed arms and explored the open arms depending on their anxiety and agitation (rats and mice normally explore their environments extensively when calm).
Animal groups: Male: Wistar rats were used in this study and were randomly divided to different experimental groups (12 animals per group).
The test drugs were procured from Sigma or Tocris. dextromethorphan from Sigma Aldrich, Cat No. D9684; latrepirdine from Sigma Aldrich, Cat No. D6196 or Tocris Cat No. 3201 diazepam and fluvoxamine Sigma Aldrich, Cat No. F2802 or Tocris, Cat No. 1033. All these test drugs were formulated in sufficient quantity in 0.9% saline except for Fluvoxamine, which was formulated in 30% ethanol in 0.9% saline.
Apparatus: Elevated Plus Maze (EPM) was used (FIG. 1). The maze consisted of two closed arms and two open arms forming a cross, with a square center platform. All visible surfaces were made of black acrylic. Each arm of the maze was placed on a support column above the floor. Antistatic black vinyl curtains used for surrounding the EPM to make an enclosure.
Study Design and Dosing: Yohimbine was administered by intraperitoneal injection (i.p.) at a dose of 2.5 mg/kg (30 minutes prior to study) to induce agitation and the effects were assessed 30 minutes after yohimbine injection by measuring the number of open arm entries and exploration time in the EPM. The test drugs fluvoxamine, dextromethorphan and latrepirdine dihydrochloride hydrate were administered through intramuscular route and, diazepam through intraperitoneal route into the hindleg thigh muscle of rats (60 minutes prior to study; 30 minutes prior to yohimbine administration). Diazepam was injected 30 minutes intraperitonially prior to the assay i.e. along with yohimbine administration. The study design is illustrated in FIG. 2 and table 5.
After the test drug administration, the rat was placed on the platform opposite a closed arm. The number of entries and the time spent in each arm were recorded during a 5 min period. The animal was considered as entered in arm when it placed its four paws into the arm.
Statistical Analysis: Analysis of variance (ANOVA) was performed on the result data. Fisher's PLSD was used for pairwise comparisons and p value≤0.05 was considered significant.

A further data set has as its system aggressive behavior. The data set can be described thus: Resident intruder task (Example 5). Format: in vivo, Swiss albino mice. To be noted: 10 mg/kg i.p., 60 min prior to trial; mean value.
The next data set deals with depressive-like behavior. As to the kind of experiment: Forced swim test in dark phase (Example 4).
Data set [3] deals with yohimbine-induced noradrenergic hyperarousal. The data set can be described thus: Elevated plus maze, latrepirdine at different doses in yohimbine-induced hyperarousal (Example 3). The data set is classed as in vivo, Wistar rats. The conditions noted are these: for Percent increase as referred to the Vehicle level, Entries / Percent increase as referred to the Vehicle level, Time: yohimbine 2.5 mg/kg i.p. 30 min, 60 min. The protocol: Drug preparation: All compounds/drugs were prepared in normal saline (0.9% NaCl).
Yohimbine was prepared at a solution of 2.5 mg/mL which when injected i.p. at a dosage volume of 1 mL/kg results in a dose of 2.5 mg/kg. Diazepam was prepared at a solution of 1 mg/mL which when injected i.p. at a dosage volume of 1 mL/kg results in a dose of 1 mg/kg. Latrepirdine dihydrochloride hydrate was prepared at a solution of 7.5, 2.5, 0.75 and 0.25 mg/mL which when injected i.m. at a volume of 100 μL for a rat of 250 g results in doses of 3; 1; 0.3 and 0.1 mg/kg; respectively. Latrepirdine dihydrochloride hydrate was also prepared at […] which when administrated i.p. at a dosage volume of 1 mL/kg results in a dose of 3 mg/kg.
Male Wistar rats (Janvier; Le Genest St Isle-France) were used for the study. They were purchased at a body weight of 150 g and reached a body weight of about 220 g at the time of use. They were group-housed (3-4 rats per cage) and maintained in a room with controlled temperature (21-22° C.) and a reversed light-dark cycle (12 h/12 h; lights on: 17:30-05:30; lights off: 05:30-17:30) with food and water available ad libitum.
Rats were distributed in 9 different experimental groups with 12 rats per group as illustrated in Table 6. Each experimental group was also coded so that the experimenter became unaware of the true experimental group at the time EPM trial.
The rats were randomly assigned to one of the different experimental groups. Each animal was identified by its group name, cage number, series (day) of experiment, and a number (from 1 to 9) written with permanent ink on its tail. They were handled by an experimenter for about 3 min each day during 1 week prior to the day of EPM trial. The apparatus was a PVC maze covered with Plexiglas and subdivided into four equal exploratory arms (40×10 cm), which were all interconnected by a small platform (10×10 cm). The apparatus was placed 65 cm above the floor. Two arms were opened, and two others were closed with wall (high: 10 cm). After compound administration, rat was placed on the platform opposite a closed arm. The number of entries and the time spent in each arm were recorded during a 5 min period. The animal was considered as entered in an arm when it placed its four paws in the arm. The apparatus was cleaned between each animal using alcohol (70%). Urine and feces were removed from the maze. During the trials, animal handling and the visibility of the operator were minimized as much as possible.
Analysis of variance (ANOVA) was performed on the result data. Fisher's PLSD was used for pairwise comparisons and p value≤0.05 were considered significant. For the sake of comparison, the change in the EPM performance of Yohimbine rats was expressed as a percentage of increase/decrease as referred to the level recorded in the vehicle (set as 0% change). Therefore, for each of the EPM parameter, the following formula was used: [performance of a given group-performance of vehicle group]/[performance of vehicle group]×100

The structures appear in SMILES notation. Structures can show the parent of a compound that is named as a salt.

Protocol for aggressive behavior: Strain/Gender: Swiss albino/Male
Bilateral ovariectomy surgery was carried out in 3-4 weeks old female Swiss albino mice as per the standard methods (Alagwu and Nneli, 2005). Animals were anesthetized using Avertin (2,2,2-Tribromoethanol) at 250 mg/kg, i.p. and were laid down on the surgery table and fixed with adhesive plaster. A midline incision was made on the dorsal region below the rib and 1 cm lateral to the either side of midline, a small incision was made on fascia to isolate the adipose fat supporting the ovaries. By slowly pulling out the fat tissue, the ovary was identified and excised the following uterine horn ligation with silk sutures. Fascia was covered with sutures and similar procedure was repeated on the other side as well. Superficial skin layers were sutured and gentamicin (80 mg/kg, s.c.) was given as antibiotic and meloxicam (4 mg/kg, s.c.) as analgesic, then povidone iodine was applied on superficial skin layers. Polyethylene glycol (PEG) was applied to prevent drying of eye balls and kept for recovery period of 3 weeks (surgery was carried by a single experimenter). […]
Data obtained was compared with basal scoring by using Student's paired two tailed t-test. Duration of attack, and latency of attack between the groups was analyzed using One-Way ANOVA followed by Bonferroni's posthoc test. […]
Protocol for depressive-like behavior: • Species: Rattus norvegicus • Strain: Sprague Dawley (SD) • Sex and Age: Male, 8-10 weeks old • Source: Hylasco Biotechnology Pvt.
Study was carried out as a staggered treatment, each treatment group divided as cohort 1, cohort 2 and cohort 3.
Swim 2 was carried out between 19:30 to 21:30. Animals were administered test compounds from 18:30 onwards in staggered manner 60 minutes before FST 2.
Forced Swim Test was carried out in Dark Phase
On Day 1, animals were subjected to forced swim test training for 15 minutes (Swim 1) and on Day 2, Swim 2 was carried out post treatment.
On day 2 animals were dosed with respective treatment 60 min prior to performing FST.
Forced swim test (Swim 2) was scored manually with no video recording
Forced swim test (FST), was used to study the depressive-like behavior in rodents. The test was carried out in transparent cylindrical glass containers measuring 46 cm in height and 20 cm in diameter.
The containers were filled with water (23-25° C.) to a depth of 30 cm.
There were 2 swim sessions, 24 h apart. The first session, Swim 1 was the pretest/training stage (15 min) and the second session, Swim 2, was the test stage (8 min).
In swim 2, first 1-minute data was excluded from analysis and rest 7 minutes data was considered. In 7 minutes, data, it was divided 5 minutes and 2 minute.
Rat was placed in the water-filled cylinder for 15 min (Swim 1). […]

As to `Cc1ccc2c(c1)c1c(n2CCc2ccc(C)nc2)CCN(C)C1` [Latrepirdine dihydrochloride hydrate, 2,8-dimethyl-5-[2-(6-methylpyridin-3-yl)ethyl]-3,4-dihydro-1H-pyrido[4,3-b]indole], the distance traveled entry in data set [1] (1 mg/kg i.p.), in data set [1] (3 mg/kg i.p.) and in data set [1] (10 mg/kg i.p.) was “did not show any significant reduction” each time. For the same molecule, the “exploration time (time spent in the open arms)” value (shortened to “exploration time”) in data set [2] (3 mg/kg i.m.) and in data set [2] (10 mg/kg i.m.) was “increased” throughout. For the same molecule, the “number of open arm entries” value in data set [2] (3 mg/kg i.m.) and in data set [2] (10 mg/kg i.m.) was “significantly increased” throughout. Also, the duration of attack with aggressive behavior turned out to be 36.87 s. In addition, in the data set on depressive-like behavior (1 mg/kg i.m.), the “increase in swimming time as compared to vehicle saline” value came out at 9.8%. Further, the “Percent increase as referred to the Vehicle level, Entries” value in data set [3] (1 mg/kg i.m.) and in data set [3] (3 mg/kg i.m.) was “significant” each time. Besides, the “Percent increase as referred to the Vehicle level, Time” value in data set [3] (1 mg/kg i.m.) and in data set [3] (3 mg/kg i.m.) was “significant” throughout. The “number of visits to and time spent into the open arms, dose dependence” value in data set [3] (yohimbine administered rats, 0.1, 0.3, 1 and 3 mg/kg i.m.) is “dose-dependent increase”. Moreover, in data set [3] (yohimbine rats, 3 mg/kg i.m. vs 3 mg/kg i.p.), the “EPM performance, i.m. compared with i.p. route” value is on record as “comparable”. The “EPM performance of saline-treated rats” value in data set [3] (yohimbine-free rats, 3 mg/kg i.m.) is given as “did not significantly modify”.

For `COc1ccc2c(c1)[C@]13CCCC[C@@H]1[C@H](C2)N(C)CC3` [dextromethorphan, Dextromethorphan], the “reduction of noradrenergic mediated hyperarousal” value in data set [2] is given as “ineffective”. In data set [2] (10 mg/kg i.m.), the “exploration time” value was “no effect” and the “number of open arm entries” value is “no effect”.

Take `Cc1cccc([C@H](C)c2cnc[nH]2)c1C` [Dexmedetomidine hydrochloride, (+) 4-(S)-[1-(2,3-dimethylphenyl)ethyl]-1H-imidazole]: the distance traveled result is reported as “did not show any significant reduction” in data set [1] (4 μg/kg i.p.), “did not show any significant reduction” in data set [1] (10 μg/kg i.p.), “did not show any significant reduction” in data set [1] (20 μg/kg i.p.) and “significant reduction” in data set [1] (30 μg/kg i.p.). Further, the “increase in swimming time as compared to vehicle saline” value in the data set on depressive-like behavior (1 μg/kg i.m.) is on record as ~1.6%.

Regarding `COCCCC/C(=N\OCCN)c1ccc(C(F)(F)F)cc1` [fluvoxamine, Fluvoxamine], in data set [2], the “reduction of noradrenergic mediated hyperarousal” value was “ineffective”. In addition, in data set [2] (10 mg/kg i.m.), the “exploration time” value is “no effect” and the “number of open arm entries” value is “no effect”.

In the case of `COC(=O)[C@@H]1[C@H]2C[C@H]3c4[nH]c5ccccc5c4CCN3C[C@@H]2CC[C@@H]1O` [yohimbine, Yohimbine], the “number of visits to and time spent into the open arms” value in data set [3] (2.5 mg/kg i.p., vehicle-treated, compared to vehicle-treated saline rats) is “marked significant decrease”.
